In US9771394B2, “Antimicrobial polymyxins for treatment of bacterial infections” (priority 2014, dated 2017):
Several values for one entry are separate records, joined by “and”; a condition that tells them apart may be missing. Identical values can stand only once. Like-named read-outs stand apart in the source and are kept apart here. Marks after values point to notes of the source that are not given here. Starred links: 1 amine or outer side, 2 acyl side, 3 side chain; linkers in the order of their positions; H or OH if unused. Positions of bridges follow the written chain, without caps; N, C: chain ends. Non-standard residues stand in square brackets, D forms with d. Residues, ends and D or L forms follow the SMILES beside them. ξ: configuration not given here. *: point of attachment. Thr(3ξ) = CC(O)[C@H](N)C(=O)O; Suc = O=C(CCC(=O)[*:2])[*:1]; X1 = CCC(C)(C)C(=O)OCCC(=O)*; X2 = CCCC(C)OC(=O)CCC(=O)*; X5 = CCCCOP(=O)(O)CC(=O)*; Dab = NCC[C@H](N)C(=O)O

Legend:
P. aeruginosa PAE 1001 = format: cell-based, Pseudomonas aeruginosa
Source text: (§1) In vitro activity of compounds provided herein may be assessed by standard testing procedures such as the determination of minimum inhibitory concentration (MIC, μg/mL) just as described in “Methods for Dilution Antimicrobial Susceptibility Tests for Bacteria That Grow Aerobically; Approved Standard—Ninth Edition,” published in 2012 by the Clinical and Laboratory Standards Institute, Wayne, Pa., USA. Thus, bacterial colonies grown overnight on Mueller-Hinton Agar plate were selected and suspended in sterile saline to a turbidity of about 80% transmittance, as measured by a spectrophotometer. The suspension was diluted 200-fold with cation-adjusted Mueller-Hinton broth to serve as the inoculum for testing. Two-fold serial dilutions of the test compound were performed in 96-well master plate to arrive at desired concentration. Samples of 10 microliter from each well of the master plate were transferred into respective wells of 96-well assay plate. Bacterial inoculum (90 microliter) was introduced into each well of the assay plate. The assay plate was placed in the incubator at 35° C. for about 24 h (without agitation) followed by the MIC determination. MIC values were determined based on the presence or absence of bacterial growth in wells at the given test agent concentration. MIC value is defined as the lowest concentration of test antibiotic that prevents visible bacterial growth.
(§2) The useful activity of exemplary compounds described herein against Gram-negative pathogens Pseudomonas aeruginosa, Escherichia coli, or Klebsiela pneumoniae is illustrated by the MIC data of Table 1.

E. coli WECO 1003 = format: cell-based, Escherichia coli
Source text: as §1, §2

K. pneumoniae KPN1004 = format: cell-based, Klebsiela pneumoniae
Source text: as §1, §2

E. coli = E. coli septicemia (systemic) mouse model, IV dosing; format: in vivo, Escherichia coli; settings: PMB values are side-by-side comparator; for number (A) of surviving animals out of total (B) mice, A/B: at 5 mg/kg
Source text: (§3) A lower ED50 value indicates a higher therapeutic efficacy of the drug. The number of surviving animals (from the total number of infected animals used at a given drug dose) is another indicator of efficacy. […] In thigh and lung infection models, a greater reduction in the bacterial colony-forming units (CFU) indicates stronger beneficial therapeutic effect (more bacterial eradication), while a lower CFU reduction or an increase in CFU value indicates a lower effect (less bacterial eradication), or an absence of the therapeutic effect.

P. aeruginosa [1] = experiment: P. aeruginosa thigh infection mouse model, IV dosing; format: in vivo, Pseudomonas aeruginosa; settings: CFU change at 12 h vs no treatment control, PMB values in parenthesis side-by-side
Source text: as §3

P. aeruginosa [2] = experiment: P. aeruginosa lung infection (pneumonia) mouse model, SC dosing; format: in vivo, Pseudomonas aeruginosa; settings: for Relative CFU count, vs. PMB: mouse lung infection, 10 mg/kg; for P. aeruginosa Lung infection model ΔlogCFU at 10 mg/kg: mouse, CFU change at 24 h vs starting inoculum
Source text: as §3

[3] = Stability in human plasma at 37° C.; format: in vitro ADME; settings: for remaining at 1 h, 25 μM / remaining at 4 h, 25 μM: human, plasma
Protocol: Exemplary compounds of this invention were tested for stability in human plasma at 37° C., replicating in vivo conditions of mammalian blood. Plasma stability for select compounds was performed as follows. Human plasma (K2 EDTA) was obtained from Bioreclamation. The assay was carried out in 96-well microtiter plates. Test compounds were incubated in duplicate at 37° C. in the presence of plasma. Reaction mixtures (25 μL) contained a final concentration of 25 μM test compound. The extent of metabolism was calculated as the disappearance of the test compound over time. Eucatropine was included as a positive control to verify assay performance. At each given time point, 100 μL of quench solution (100% MeCN with 0.1% HCOOH) with internal standard was transferred to each well. Plates were sealed, vortexed, and centrifuged at 4° C. for 15 minutes at 4,000 rpm. The supernatant was transferred to fresh plates for LC/MS/MS analysis. The formation of a potential metabolite was monitored in all samples. The samples were analyzed on LC/MS/MS using an AB Sciex API 4000 instrument, coupled to a Shimadzu LC-20AD LC Pump system. Analytical samples were separated using a Waters Atlantis T3 dC18 reverse phase HPLC column (20 mm×2.1 mm) at […] a flow rate of 0.5 mL/min, eluting with 0.1% aq. HCOOH and 0.1% HCOOH in MeCN (using gradient from 2% to 98% of the latter). Remaining test compounds were quantified via MS/MS ion current.

human HK-2 cell = experiment: Human HK-2 cell cytotoxicity assay (in vitro nephrotoxicity); format: cell-based
Source text: (§4) Nephrotoxicity of polymyxins could be determined in vitro using human renal […] (HK-2) cytotoxicity assay, analogously to that described, for example, by Keirstead et al. in Toxicol. Sci., 2014, vol. 137, pp. 278-291. In vivo, nephrotoxicity could be determined using urine biomarker assays, such as clinically validated neutrophil gelatinase-associated lipocalin (NGAL) assay described, for example by Devarajan in Scand. J. Clin. Lab. Invest. Suppl., 2008, vol. […], pp. 89-94.

[4] = test system: Gram-negative pathogens Pseudomonas aeruginosa, Escherichia coli, or Klebsiela pneumoniae; experiment: MIC, Gram-negative panel of Table 1; format: cell-based
Source text: In vitro activity of compounds provided herein may be assessed by standard testing procedures such as the determination of minimum inhibitory concentration (MIC, μg/mL) just as described in “Methods for Dilution Antimicrobial Susceptibility Tests for Bacteria That Grow Aerobically; Approved Standard—Ninth Edition,” published in 2012 by the Clinical and Laboratory Standards Institute, Wayne, Pa., USA. Thus, bacterial colonies grown overnight on Mueller-Hinton Agar plate were selected and suspended in sterile saline to a turbidity of about 80% transmittance, as measured by a spectrophotometer. The suspension was diluted 200-fold with cation-adjusted Mueller-Hinton broth to serve as the inoculum for testing. Two-fold serial dilutions of the test compound were performed in 96-well master plate to arrive at desired concentration. Samples of 10 microliter from each well of the master plate were transferred into respective wells of 96-well assay plate. Bacterial inoculum (90 microliter) was introduced into each well of the assay plate. The assay plate was placed in the incubator at 35° C. for about 24 h (without agitation) followed by the MIC determination. MIC values were determined based on the presence or absence of bacterial growth in wells at the given test agent concentration. MIC value is defined as the lowest concentration of test antibiotic that prevents visible bacterial growth. […]

[5] = test system: neutrophil gelatinase-associated lipocalin (NGAL); experiment: Rat urine NGAL biomarker assay (in vivo nephrotoxicity); settings: repeated dose, 25 mg/kg/day QID, SC, Low = signal similar to the background
Source text: as §4

[6] = 35° C., about 24 h, cation-adjusted Mueller-Hinton broth

| Molecule | Antibacterial activity (MIC) P. aeruginosa PAE 1001 (P. aeruginosa PAE 1001; PAE 1001, 24 h) | Antibacterial activity (MIC) E. coli WECO 1003 (E. coli WECO 1003; WECO 1003, 24 h) | Antibacterial activity (MIC) K. pneumoniae KPN1004 (K. pneumoniae KPN1004; KPN1004, 24 h) | E. coli Systemic model, IV dosing ED50 (E. coli) | number (A) of surviving animals out of total (B) mice, A/B (E. coli) | P. aeruginosa Thigh model, IV dosing ΔlogCFU at 5 mg/kg (P. aeruginosa [1]) | Relative CFU count, vs. PMB (P. aeruginosa [2]) | P. aeruginosa Lung infection model ΔlogCFU at 10 mg/kg (P. aeruginosa [2]) | remaining at 1 h, 25 μM [3] | remaining at 4 h, 25 μM [3] | HK-2 cytotoxicity class (human HK-2 cell) | IC50 (human HK-2 cell) | Antibacterial activity (MIC) P. aeruginosa PAE 1001 (P. aeruginosa PAE 1001; [6]) | Antibacterial activity (MIC) E. coli WECO 1003 (E. coli WECO 1003; [6]) | Antibacterial activity (MIC) K. pneumoniae KPN1004 (K. pneumoniae KPN1004; [6]) | further results |
| --- | --- | --- | --- | --- | --- | --- | --- | --- | --- | --- | --- | --- | --- | --- | --- | --- |
| CCC(C)(C)C(=O)OCCC(=O)N[C@@H](CCN)C(=O)N[C@H](C(=O)N[C@@H](CCN)C(=O)N[C@H]1CCNC(=O)[C@H](C(C)O)NC(=O)[C@H](CCN)NC(=O)[C@H](CCN)NC(=O)[C@H](CC(C)C)NC(=O)[C@@H](Cc2ccccc2)NC(=O)[C@H](CCN)NC1=O)C(C)O (stereo partly shown) [Example 12] (X1-[Dab][Thr(3ξ)][Dab][Dab][Dab][dF]L[Dab][Dab][Thr(3ξ)]; lactam 4-C) | 4 µg/mL | 2 µg/mL | 2 µg/mL | 2.5 mg/kg | 3/6 | −1.44 | 1.7 × 10^−5 | −2.15 | 67% | 31% | Class 4 | > 200 µM | – | – | – | – |
| CCCC(C)OC(=O)CCC(=O)N[C@@H](CCN)C(=O)N[C@H](C(=O)N[C@@H](CCN)C(=O)N[C@H]1CCNC(=O)[C@H](C(C)O)NC(=O)[C@H](CCN)NC(=O)[C@H](CCN)NC(=O)[C@H](CC(C)C)NC(=O)[C@@H](Cc2ccccc2)NC(=O)[C@H](CCN)NC1=O)C(C)O (stereo partly shown) [Example 18] (X2-[Dab][Thr(3ξ)][Dab][Dab][Dab][dF]L[Dab][Dab][Thr(3ξ)]; lactam 4-C) | 2 µg/mL | 2 µg/mL | 4 µg/mL | 7.5 mg/kg | 3/6 | −1.29 | 4.8 × 10^−6 | −2.70 | 66% | 18% | Class 4 | > 200 µM | – | – | – | – |
| CC(C)C[C@@H]1NC(=O)[C@@H](Cc2ccccc2)NC(=O)[C@H](CCN)NC(=O)[C@@H](NC(=O)[C@H](CCN)NC(=O)[C@@H](NC(=O)[C@H](CCN)NC(=O)CCC(=O)O)C(C)O)CCNC(=O)[C@H](C(C)O)NC(=O)[C@H](CCN)NC(=O)[C@H](CCN)NC1=O (stereo partly shown) [Example 19] (Suc-[Dab][Thr(3ξ)][Dab][Dab][Dab][dF]L[Dab][Dab][Thr(3ξ)]; lactam 4-C) | 4 µg/mL | >32 µg/mL | >32 µg/mL | – | – | −0.14 | – | – | – | – | Class 4 | > 200 µM | – | – | – | antibacterial activity in words (MIC, Table 1) ([4]; Example 19: against two Gram-negative pathogens in the test): essentially inactive |
| CCCCOP(=O)(O)CC(=O)N[C@@H](CCN)C(=O)N[C@H](C(=O)N[C@@H](CCN)C(=O)N[C@H]1CCNC(=O)[C@H](C(C)O)NC(=O)[C@H](CCN)NC(=O)[C@H](CCN)NC(=O)[C@H](CC(C)C)NC(=O)[C@@H](Cc2ccccc2)NC(=O)[C@H](CCN)NC1=O)C(C)O (stereo partly shown) [Example 33] (X5-[Dab][Thr(3ξ)][Dab][Dab][Dab][dF]L[Dab][Dab][Thr(3ξ)]; lactam 4-C) | – | – | – | – | – | – | – | – | – | – | – | – | 8 µg/mL | 8 µg/mL | 8 µg/mL | fold less active than polymyxin B comparator (MIC) ([4]; vs polymyxin B): about 2 fold |
| polymyxin B [reference compound] | – | – | – | – | – | – | 1 | +2.61 | – | – | – | – | 2-4^a μg/mL | 2-4^a μg/mL | 2-4^a μg/mL | E. coli Systemic model, IV dosing ED50 (E. coli; listed as PMB): 4.6 mg/kg and 3.9 mg/kg and 2.5 mg/kg; E. coli Systemic model, IV dosing ED50 (E. coli; listed as Polymyxin B (PMB)): 4 to 7 mg/kg; number (A) of surviving animals out of total (B) mice, A/B (E. coli; listed as PMB): 2/6 and 5/6 and 3/6; P. aeruginosa Thigh model, IV dosing ΔlogCFU at 5 mg/kg (P. aeruginosa [1]; listed as Polymyxin B (PMB)): −1.49 to −3.33; Compound remaining, % T = 1.0 h ([3]; human plasma, 37° C., 25 μM, 1.0 h): 100^a^ %; Compound remaining, % T = 4.0 h ([3]; human plasma, 37° C., 25 μM, 4.0 h): 100^a %; HK-2 cytotoxicity class (human HK-2 cell; HK-2 cytotoxicity, Eurofins Cerep): Class 1; IC50 (human HK-2 cell; HK-2 cytotoxicity, Eurofins Cerep, read-out: In vitro: human HK-2 cell assay IC50): 82 µM; In vivo: rat urine biomarker NGAL [5]: High: above detection |
